As usually defined, the logP is the decadic logarithm of the partition coefficient of the neutral form, usually between octanol and water. Low readings indicate lower lipophilicity, high ones higher lipophilicity. As usually defined, the solubility is the concentration that dissolves in the medium under given conditions. Higher therefore signals much dissolved substance.

≈ marks a conversion by molar mass, not a printed value.

Settings in one data set: not given
`CCOP(=O)(OCC)SCS(=O)(=O)CC` came in with a logP of 1.98.

The data set is the same for the next values; noted with them: 20 °C.
`CNC(=O)Oc1ccccc1OC(C)C` yielded a solubility of 8890 µM (≈ 1860 µg/mL).
In turn, `COP(=S)(OC)Oc1ccc(SC)c(C)c1` registered a solubility of 26.9 µM (≈ 7.5 µg/mL).
The molecule `COc1nn(CSP(=S)(OC)OC)c(=O)s1` showed a solubility of 619 µM (≈ 187 µg/mL).
`COP(=S)(OC)SCN1C(=O)c2ccccc2C1=O`: the solubility came to 76.9 µM (≈ 24.4 µg/mL).
For the molecule `CCOP(=O)(OCC)OC(=CCl)c1ccc(Cl)cc1Cl`, the solubility stood at 345 µM (≈ 124 µg/mL).
`CNC(=O)Oc1ccc(N(C)C)c(C)c1` came in with a solubility of 4390 µM (≈ 915 µg/mL).
Molecule `COP(=S)(OC)Oc1ccc([N+](=O)[O-])cc1` registered a solubility of 143 µM (≈ 37.7 µg/mL).
The molecule `CCOC(=O)CC(SP(=S)(OC)OC)C(=O)OCC` (configuration not stated) registered a solubility of 433 µM (≈ 143 µg/mL).
Take `COP(=S)(OC)SCSc1ccc(Cl)cc1`: the solubility worked out at 5.08 µM (≈ 1.6 µg/mL).
As to `COP(=S)(OC)Oc1ccc([N+](=O)[O-])cc1Cl`, the solubility worked out at 49.4 µM (≈ 14.7 µg/mL).
In turn, `CCOP(=S)(OCC)SCn1nnc2ccccc2c1=O` had a solubility of 30.4 µM (≈ 10.5 µg/mL).

These data come from the OPERA property sets (Mansouri et al. 2018).
